Some test systems named below: A498 renal; HCT-116 colon; NCI-H226 lung; RXF 393 renal; SNB-19 CNS; SW-620 colon; UACC-257 melanoma; UACC-62 melanoma; UO-31 renal.
Assay in all cases: DTP human tumour cell line panel, 48 h

Values joined by “and” are separate entries in the source; they are usually repeats but may differ in a detail not shown here. Equal entries are not always repeated.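 Results reflect a 48-hour exposure of cells in 96-well plates to compound at five concentrations. The concentration for 50% growth inhibition is given as GI50. TGI: total growth inhibition.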

Regarding `NC(N)=NCCC1OC(=O)C2=C1c1c(O)ccc3nccc(c13)O2` (stereo not drawn), the GI50 with A498 renal is > 100 µM; with HCT-116 colon, > 100 µM; in the assay on NCI-H226 lung it was 89.9 µM; with RXF 393 renal it was > 100 µM; in the assay with SNB-19 CNS it was 50.5 µM; in the assay on SW-620 colon it was > 100 µM. Moreover, the figures for the GI50 with UACC-257 melanoma, in the assay with UACC-62 melanoma and in the assay on UO-31 renal were 1.73 µM, > 100 µM and > 100 µM, respectively. Moreover, the TGI with A498 renal, with HCT-116 colon, with NCI-H226 lung, in the assay with RXF 393 renal, in the assay with SNB-19 CNS and with SW-620 colon was > 100 µM throughout. For the same compound, the TGI with UACC-257 melanoma, with UACC-62 melanoma and with UO-31 renal was > 100 µM throughout.

On to `Cc1cc2c(cc1C)N(C(=O)CCl)CCN2C(=O)CCl`, for which the GI50 was 1.79 µM in the assay on A498 renal; 0.186 µM with HCT-116 colon; 0.559 µM with NCI-H226 lung; 0.237 µM with RXF 393 renal; 1.81 µM in the assay on SNB-19 CNS; 0.204 µM in the assay on SW-620 colon. The GI50 with UACC-257 melanoma is 1.3 µM; with UACC-62 melanoma, 0.657 µM; with UO-31 renal, 1.52 µM. Further, the total growth inhibition concentration (TGI) stood at 3.29 µM with A498 renal; 0.409 µM with HCT-116 colon; 1.8 µM in the assay with NCI-H226 lung; 0.668 µM in the assay with RXF 393 renal; 4.1 µM in the assay with SNB-19 CNS; 0.42 µM in the assay with SW-620 colon. For the same compound, the results for the TGI in the assay on UACC-257 melanoma, in the assay on UACC-62 melanoma and in the assay with UO-31 renal were 2.71 µM, 2.29 µM and 3.48 µM, respectively.

`COc1cc(-c2cn(-c3ccc(Cl)c(Cl)c3)c(=O)n2C(C)=O)cc(OC)c1OC`: the GI50 in the assay on A498 renal was 16.6 µM; in the assay on HCT-116 colon it was 13.7 µM; in the assay on NCI-H226 lung, 7.96 µM; in the assay on RXF 393 renal, 3.34 µM; in the assay with SNB-19 CNS it was 11.3 µM; in the assay with SW-620 colon it was 12.9 µM. Further, the GI50 in the assay with UACC-257 melanoma is 7.51 µM; with UACC-62 melanoma it was 13.3 µM; in the assay with UO-31 renal, 12 µM. In addition, the total growth inhibition concentration (TGI) was determined as 32.1 µM in the assay on A498 renal; 27.9 µM in the assay with HCT-116 colon; 25.9 µM with NCI-H226 lung; 14.9 µM with RXF 393 renal; 33.2 µM in the assay with SNB-19 CNS; 29.8 µM in the assay on SW-620 colon. For the same compound, the values for the TGI in the assay on UACC-257 melanoma, in the assay on UACC-62 melanoma and in the assay with UO-31 renal were 23.2 µM, 26 µM and 27.4 µM, respectively.

Turning to `COc1ccc2cc(-c3c(-c4ccncc4)nc(-c4ccc(S(C)(=O)=O)cc4C)n3C)ccc2c1`, the GI50 is 6.31 µM with A498 renal; 7.62 µM with HCT-116 colon; 4.17 µM in the assay on NCI-H226 lung; 3.99 µM in the assay with RXF 393 renal; 9.04 µM with SNB-19 CNS; 9.68 µM with SW-620 colon. Moreover, the GI50 is 7.75 µM with UACC-257 melanoma, 7.95 µM in the assay on UACC-62 melanoma and 4.4 µM in the assay with UO-31 renal. In addition, the total growth inhibition concentration (TGI) in the assay with A498 renal was > 25 µM; in the assay with HCT-116 colon it was > 25 µM; in the assay on NCI-H226 lung it was > 20.4 µM; in the assay with RXF 393 renal, 20.7 µM; in the assay on SNB-19 CNS, > 25 µM; with SW-620 colon, > 25 µM. Moreover, the TGI is > 25 µM with UACC-257 melanoma, > 25 µM in the assay with UACC-62 melanoma and 20.2 µM with UO-31 renal.

For `CCOC(=O)/C=C/C1=C(c2cccs2)c2ccccc2CC1`, the GI50 is 36.9 µM with A498 renal; 25.4 µM in the assay on HCT-116 colon; 25.4 µM with NCI-H226 lung; 19.5 µM with RXF 393 renal; 30.9 µM in the assay on SNB-19 CNS; 31.1 µM in the assay on SW-620 colon. Besides, the GI50 in the assay with UACC-257 melanoma is 21.2 µM; in the assay with UACC-62 melanoma it was 18.7 µM; in the assay on UO-31 renal it was 33.5 µM. The TGI with A498 renal was > 100 µM; in the assay on HCT-116 colon, 79.5 µM; with NCI-H226 lung it was 70.2 µM; in the assay on RXF 393 renal, 41.3 µM; in the assay on SNB-19 CNS, > 100 µM; with SW-620 colon, > 100 µM. For the same compound, the total growth inhibition concentration (TGI) was 53.7 µM in the assay on UACC-257 melanoma, 40.9 µM in the assay on UACC-62 melanoma and > 100 µM with UO-31 renal.

Take `COc1ccc(Cn2c3c(cc(OS(=O)(=O)C(F)(F)F)c2=O)Cc2ccccc2-3)cc1`: the GI50 with A498 renal was > 100 µM; in the assay with HCT-116 colon it was 3.53 µM; in the assay with NCI-H226 lung it was 37.7 µM; in the assay on SNB-19 CNS, 23.7 µM; in the assay with SW-620 colon, 5.29 µM; with UACC-257 melanoma it was 5.14 µM. Further, the GI50 in the assay with UACC-62 melanoma was 5.39 µM; in the assay with UO-31 renal, 9.37 µM. Further, the TGI was > 100 µM with A498 renal; 50 µM and > 100 µM in the assay with HCT-116 colon; 50 µM and > 100 µM in the assay with NCI-H226 lung; 50 µM and > 100 µM in the assay with RXF 393 renal; 50 µM and > 100 µM with SNB-19 CNS; 50 µM and > 100 µM with SW-620 colon. Also, the total growth inhibition concentration (TGI) in the assay on UACC-257 melanoma is 50 µM and > 100 µM; in the assay with UACC-62 melanoma it was 50 µM and 32.1 µM; in the assay with UO-31 renal, 50 µM and > 100 µM.

As for `C=CC(=O)Nc1cc2c(Nc3ccc(F)c(Cl)c3)ncnc2cc1OCCCN1CCOCC1`, the GI50 in the assay on A498 renal is 0.357 µM and 0.681 µM; in the assay with HCT-116 colon, 1.58 µM and 2.35 µM; in the assay on NCI-H226 lung it was 2.08 µM and > 6.11 µM; in the assay on RXF 393 renal, 1.32 µM and 1.88 µM; in the assay with SNB-19 CNS, 2.53 µM and > 6.7 µM; with SW-620 colon, 1.81 µM and 2.62 µM. The GI50 was 3.42 µM and 9.15 µM in the assay on UACC-257 melanoma; 1.77 µM and 2.19 µM in the assay on UACC-62 melanoma; 0.288 µM and 0.103 µM in the assay with UO-31 renal. For the same compound, the TGI was 2.51 µM and 5.15 µM with A498 renal; 3 µM and > 5.9 µM in the assay on HCT-116 colon; 5.59 µM and > 10 µM in the assay with NCI-H226 lung; 2.82 µM and 6.23 µM in the assay with RXF 393 renal; 14.7 µM and > 10 µM in the assay with SNB-19 CNS; 3.59 µM and > 6.13 µM in the assay with SW-620 colon. Besides, the TGI with UACC-257 melanoma is 12.8 µM and > 10 µM; in the assay on UACC-62 melanoma it was 4.48 µM and > 7.71 µM; in the assay on UO-31 renal, 12.9 µM and > 8.65 µM.

For the compound `CCOc1cccc(/C=N/NC(=O)C(=O)Nc2cccc(C(F)(F)F)c2)c1O`, the GI50 in the assay on A498 renal is 8.85 µM; in the assay on HCT-116 colon, 1.02 µM; in the assay with NCI-H226 lung, 3.96 µM; with RXF 393 renal, 4.07 µM; in the assay with SNB-19 CNS it was 2.48 µM; in the assay on SW-620 colon it was 3.09 µM. For the same compound, the GI50 with UACC-257 melanoma was 2.57 µM; in the assay on UACC-62 melanoma, 1.06 µM; with UO-31 renal, 0.63 µM. Also, the TGI was 76.2 µM in the assay on A498 renal; > 100 µM with HCT-116 colon; 50.1 µM in the assay with NCI-H226 lung; 55.1 µM with RXF 393 renal; > 100 µM in the assay with SNB-19 CNS; > 100 µM in the assay on SW-620 colon. Besides, the TGI in the assay with UACC-257 melanoma stood at 25 µM; in the assay with UACC-62 melanoma, 4.51 µM; with UO-31 renal, 18.5 µM.

By GI50 is commonly meant the concentration giving 50% growth inhibition. The TGI is the concentration giving total growth inhibition.
